Read-outs that look alike come from different tables or passages of the source.
Key:
PBP1b = PBP1b (Pseudomonas aeruginosa, UniProt G3XD31); assay: Gel-based Bocillin FL competition PBP binding assay
Protocol: (§1) Ten milliliters of overnight bacterial culture was inoculated in 1 L of LB medium and grown to an OD600 of 0.7 to 0.9. The cell pellet was washed once with 50 mL of solution containing 100 mM Na-phosphate at pH 7.0 and 100 mM NaCl and resuspended in 10 mL of the same buffer with one tablet of EDTA-free mini-protease inhibitor and 10 mg of lysozyme. Cell suspensions were incubated for 45 min at 37°C, and then 200 μL of DNase I was added along with MgSO4 (to a final concentration of 10 mM), followed by three cycles of freeze-thawing (10 min and 20 min, respectively). Four cycles of sonication at maximum power were performed next, each cycle lasting for 30 s with 1 min on ice between cycles. The cell suspension was centrifuged at 12,000 × g for 10 min at 4°C. The supernatant was collected and centrifuged at 100,000 × g for 45 min at 4°C. The pellet was washed three times with 10 mL of 100 mM Na-phosphate, pH 7.0, by resuspension and subsequent centrifugation at 100,000 × g for 10 min at 4°C. The pellet was finally resuspended in 1.5 mL of 100 mM Na-phosphate, pH 7.0, and passed several times through a Dounce homogenizer (tight pestle). Membrane preparations were aliquoted and kept at −80°C.
(§2) Five microliters of total bacterial membrane preparation was mixed with 5 μL of a test compound at a desired concentration in 100 mM Na-phosphate buffer, pH 7.0. Incubation of bacterial membrane preparations with control beta-lactams was performed for 10 min at 30°C; xeruborbactam was incubated with membrane preparations for 1 h at 30°C. Five microliters of 150 μM Bocillin FL fluorescent probe (Thermo Fisher Scientific) was added, and the reaction mixture was incubated for an additional 10 min at 30°C in the case of beta-lactams or for 20 min on ice (0°C) in the case of xeruborbactam. […] At the end of the incubation step, 15 μL of 2× SDS sample loading buffer was added, and the reaction mixture was incubated for 5 min at 95°C. Twenty-five microliters of the reaction mixture was then loaded on an 8% SDS Tris-glycine gel (Thermo Fisher Scientific). At the end of the run, the gel was briefly rinsed with water and fixed in 10% acetic acid, 40% methanol for 20 min. After an additional wash in water for 30 min, the gel was scanned on a Typhoon Trio+ Imager using a blue laser filter (excitation, 488 nm, and emission, 520 nm). Densitometry of the gel images was performed using ImageQuant software (Molecular Dynamics). IC50 values were calculated with Prism software (GraphPad).

PBP2 = target: T1, PBP2 (Acinetobacter baumannii, UniProt D0C8Z9); assay: as above; details: A. baumannii ACM1320 membranes; Bocillin FL step 0°C for xeruborbactam, 30°C for beta-lactams; read-out: Relative binding IC50, PBP2
T1 construct: endogenous in cells
T1 sequence (D0C8Z9 1-672): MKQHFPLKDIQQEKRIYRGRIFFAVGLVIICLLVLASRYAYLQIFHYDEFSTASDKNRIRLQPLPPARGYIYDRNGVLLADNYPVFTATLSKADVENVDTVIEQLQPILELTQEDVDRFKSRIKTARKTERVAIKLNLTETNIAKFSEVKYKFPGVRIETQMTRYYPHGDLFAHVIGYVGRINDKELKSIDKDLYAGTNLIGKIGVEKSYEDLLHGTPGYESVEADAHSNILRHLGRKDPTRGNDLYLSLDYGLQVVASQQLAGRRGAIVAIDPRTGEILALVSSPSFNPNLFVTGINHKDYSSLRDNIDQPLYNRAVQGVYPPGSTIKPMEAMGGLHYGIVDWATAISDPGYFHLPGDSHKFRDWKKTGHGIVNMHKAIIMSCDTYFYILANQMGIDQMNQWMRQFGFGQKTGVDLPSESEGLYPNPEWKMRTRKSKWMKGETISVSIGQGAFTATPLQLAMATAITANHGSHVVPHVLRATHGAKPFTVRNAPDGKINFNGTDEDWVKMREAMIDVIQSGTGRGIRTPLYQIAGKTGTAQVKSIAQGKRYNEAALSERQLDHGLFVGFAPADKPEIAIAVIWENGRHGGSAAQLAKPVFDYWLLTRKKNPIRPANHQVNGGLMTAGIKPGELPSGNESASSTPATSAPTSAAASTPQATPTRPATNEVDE
Protocol: as §1, §2

PBP1b, sequence (G3XD31 entry or part of it): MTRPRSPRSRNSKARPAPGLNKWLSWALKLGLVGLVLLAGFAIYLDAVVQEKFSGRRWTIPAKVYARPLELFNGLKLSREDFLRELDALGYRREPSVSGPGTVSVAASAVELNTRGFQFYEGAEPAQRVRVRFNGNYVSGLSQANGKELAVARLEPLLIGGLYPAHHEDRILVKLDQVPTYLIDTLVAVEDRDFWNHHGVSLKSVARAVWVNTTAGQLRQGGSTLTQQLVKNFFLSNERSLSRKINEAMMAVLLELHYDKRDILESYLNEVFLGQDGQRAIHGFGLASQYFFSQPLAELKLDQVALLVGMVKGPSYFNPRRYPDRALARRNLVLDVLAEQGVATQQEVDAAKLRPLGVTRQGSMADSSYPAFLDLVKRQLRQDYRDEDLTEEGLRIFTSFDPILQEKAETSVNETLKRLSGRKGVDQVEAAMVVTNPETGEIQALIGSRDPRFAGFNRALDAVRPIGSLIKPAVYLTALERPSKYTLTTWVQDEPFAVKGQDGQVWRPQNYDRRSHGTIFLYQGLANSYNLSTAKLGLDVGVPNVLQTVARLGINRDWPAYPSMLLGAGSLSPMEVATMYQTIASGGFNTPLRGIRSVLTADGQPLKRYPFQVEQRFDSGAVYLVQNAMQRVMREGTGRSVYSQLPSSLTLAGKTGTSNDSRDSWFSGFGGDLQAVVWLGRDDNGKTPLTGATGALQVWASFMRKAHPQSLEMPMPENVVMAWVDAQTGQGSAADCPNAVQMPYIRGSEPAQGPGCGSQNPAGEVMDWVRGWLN

SMILES: C[C@@H](O)[C@H]1C(=O)N2C(C(=O)O)=C(S[C@@H]3CN[C@H](C(=O)N(C)C)C3)[C@H](C)[C@H]12 [Meropenem]
- IC50 (PBP1b; read-out: Relative binding IC50, PBP1b; P. aeruginosa PAM3034 membranes; Bocillin FL step 0°C for xeruborbactam, 30°C for beta-lactams): 0.23 µM
- IC50 (PBP2): 0.011 µM

SMILES: O=C(O)c1c(F)ccc2c1OB(O)[C@@H]1C[C@H]21 [Xeruborbactam]
- IC50 (PBP1b; P. aeruginosa PAM3034 membranes; Bocillin FL step 0°C for xeruborbactam, 30°C for beta-lactams; listed as xeruborbactam; read-out: Relative binding IC50, PBP1b): 7.1 ± 0.8 µM
- IC50 (PBP1b; P. aeruginosa PAM3034 membranes; Bocillin FL step 0°C for xeruborbactam, 30°C for beta-lactams; read-out: Relative binding IC50, PBP1b): 1.9 ± 0.2 µM
- IC50 (PBP2): 23 ± 2 µM

Reference: article PMC9578396, “Intrinsic Antibacterial Activity of Xeruborbactam In Vitro: Assessing Spectrum and Mode of Action” (Antimicrobial Agents and Chemotherapy, 2022)
